Our source for the MIC values is ChEMBL document CHEMBL1137480, “Synthesis and structure-activity relationship of 7-(substituted)-aminomethyl-4-quinolone-3-carboxylic acid derivatives” (2007).

Converted amounts (≈) assume the structure as drawn.

What all share (assay type): functional
One assay concerns Salmonella. Description: Antibacterial activity against […] 48107 after 24 hrs by agar dilution method.
In another assay the test system is Shigella boydii. The experiment in a line: Antibacterial activity against Shigella boydii 51313 after 24 hrs by agar dilution method.
Assay [1] has as its system Staphylococcus epidermidis. The experiment in a line: Antibacterial activity against Staphylococcus epidermidis 26069 after 24 hrs by agar dilution method.
Another assay has as its system Streptococcus pneumoniae. Description: Antibacterial activity against Streptococcus pneumoniae 31002 after 24 hrs by agar dilution method.
Another assay deals with Klebsiella pneumoniae. The experiment in a line: Antibacterial activity against Klebsiella pneumoniae 46101 after 24 hrs by agar dilution method.
The test system of a further assay is Staphylococcus aureus. Description: Antibacterial activity against Staphylococcus aureus 26003 after 24 hrs by agar dilution method.

Consider `O=C(O)c1cn(C2CC2)c2c(F)c(CNc3cccc(Cl)c3)c(F)cc2c1=O`, for which the MIC against Salmonella is 1.56 mg/L (≈ 3.85 µM); with Shigella boydii, 0.78 mg/L (≈ 1.93 µM); in assay [1], 1.56 mg/L (≈ 3.85 µM); against Streptococcus pneumoniae, ≤ 0.049 mg/L; in the assay with Klebsiella pneumoniae, 1.56 mg/L (≈ 3.85 µM); in the assay on Staphylococcus aureus it was 0.195 mg/L (≈ 0.482 µM).

Consider `CN1CCN(Cc2c(F)cc3c(=O)c(C(=O)O)cn(C4CC4)c3c2F)CC1`, for which the MIC against Salmonella came to 1.56 mg/L (≈ 4.13 µM); against Shigella boydii it was 1.56 mg/L (≈ 4.13 µM); in assay [1] it was 12.5 mg/L (≈ 33.1 µM); against Streptococcus pneumoniae, 1.56 mg/L (≈ 4.13 µM); with Klebsiella pneumoniae, 1.56 mg/L (≈ 4.13 µM); against Staphylococcus aureus, 12.5 mg/L (≈ 33.1 µM).

Regarding `O=C(O)c1cn(C2CC2)c2c(F)c(CNC3CC3)c(F)cc2c1=O`, the MIC was 0.098 mg/L (≈ 0.293 µM) with Salmonella; 0.098 mg/L (≈ 0.293 µM) with Shigella boydii; 6.25 mg/L (≈ 18.7 µM) in assay [1]; 0.195 mg/L (≈ 0.583 µM) with Streptococcus pneumoniae; ≤ 0.049 mg/L in the assay on Klebsiella pneumoniae; 3.13 mg/L (≈ 9.36 µM) against Staphylococcus aureus.

For the molecule `CCCNCc1c(F)cc2c(=O)c(C(=O)O)cn(C3CC3)c2c1F`, the MIC in the assay on Salmonella is 0.098 mg/L (≈ 0.291 µM); against Shigella boydii, 0.195 mg/L (≈ 0.58 µM); in assay [1], > 6.25 mg/L; in the assay on Streptococcus pneumoniae, 3.13 mg/L (≈ 9.31 µM); with Klebsiella pneumoniae, 0.39 mg/L (≈ 1.16 µM); against Staphylococcus aureus it was > 6.25 mg/L.

`O=C(O)c1cn(C2CC2)c2c(F)c(CN3CCNCC3)c(F)cc2c1=O`: the MIC in the assay with Salmonella came out at 0.195 mg/L (≈ 0.537 µM); in the assay on Shigella boydii, 0.78 mg/L (≈ 2.15 µM); in assay [1], 6.25 mg/L (≈ 17.2 µM); against Streptococcus pneumoniae it was 6.25 mg/L (≈ 17.2 µM); against Klebsiella pneumoniae, 0.195 mg/L (≈ 0.537 µM); with Staphylococcus aureus, 6.25 mg/L (≈ 17.2 µM).

For `O=C(O)c1cn(C2CC2)c2c(F)c(CNc3ccc(F)cc3)c(F)cc2c1=O`, the minimal inhibitory concentration (MIC) against Salmonella turned out to be 0.39 mg/L (≈ 1 µM); with Shigella boydii it was 0.195 mg/L (≈ 0.502 µM); in assay [1], 1.56 mg/L (≈ 4.02 µM); against Streptococcus pneumoniae, 0.049 mg/L (≈ 0.126 µM); with Klebsiella pneumoniae it was 0.78 mg/L (≈ 2.01 µM); against Staphylococcus aureus, 0.78 mg/L (≈ 2.01 µM).

For the molecule `O=C(O)c1cn(C2CC2)c2c(F)c(CNc3ccc(F)c(Cl)c3)c(F)cc2c1=O`, the MIC was 0.78 mg/L (≈ 1.84 µM) against Salmonella; 1.56 mg/L (≈ 3.69 µM) against Shigella boydii; 1.56 mg/L (≈ 3.69 µM) in assay [1]; 0.39 mg/L (≈ 0.922 µM) with Streptococcus pneumoniae; 1.56 mg/L (≈ 3.69 µM) against Klebsiella pneumoniae; 0.39 mg/L (≈ 0.922 µM) in the assay on Staphylococcus aureus.

With `Cc1ccc(NCc2c(F)cc3c(=O)c(C(=O)O)cn(C4CC4)c3c2F)cc1`, the MIC against Salmonella was 0.78 mg/L (≈ 2.03 µM); with Shigella boydii, 0.39 mg/L (≈ 1.01 µM); in assay [1] it was 1.56 mg/L (≈ 4.06 µM); with Streptococcus pneumoniae it was 0.049 mg/L (≈ 0.127 µM); against Klebsiella pneumoniae, 1.56 mg/L (≈ 4.06 µM); against Staphylococcus aureus, 0.39 mg/L (≈ 1.01 µM).

With `CCNCc1c(F)cc2c(=O)c(C(=O)O)cn(C3CC3)c2c1F`, the MIC against Salmonella is 0.195 mg/L (≈ 0.605 µM); with Shigella boydii, ≤ 0.049 mg/L; in assay [1] it was > 6.25 mg/L; against Streptococcus pneumoniae it was 0.78 mg/L (≈ 2.42 µM); against Klebsiella pneumoniae, ≤ 0.049 mg/L; against Staphylococcus aureus, > 6.25 mg/L.

Regarding `O=C(O)c1cn(C2CC2)c2c(F)c(CNc3ccc(Cl)cc3)c(F)cc2c1=O`, the MIC is 1.56 mg/L (≈ 3.85 µM) with Salmonella; 1.56 mg/L (≈ 3.85 µM) against Shigella boydii; 1.56 mg/L (≈ 3.85 µM) in assay [1]; ≤ 0.049 mg/L against Streptococcus pneumoniae; 1.56 mg/L (≈ 3.85 µM) in the assay on Klebsiella pneumoniae; 0.39 mg/L (≈ 0.963 µM) against Staphylococcus aureus.

In the case of `Cc1cc(C)nc(NCc2c(F)cc3c(=O)c(C(=O)O)cn(C4CC4)c3c2F)c1`, the MIC with Salmonella was found to be 0.78 mg/L (≈ 1.95 µM); in the assay with Shigella boydii it was 0.39 mg/L (≈ 0.976 µM); in assay [1], 1.56 mg/L (≈ 3.91 µM); against Streptococcus pneumoniae, 0.098 mg/L (≈ 0.245 µM); against Klebsiella pneumoniae it was 0.78 mg/L (≈ 1.95 µM); with Staphylococcus aureus, 0.39 mg/L (≈ 0.976 µM).

As for `Cc1ccc(NCc2c(F)cc3c(=O)c(C(=O)O)cn(C4CC4)c3c2F)cc1C`, the MIC was 1.56 mg/L (≈ 3.92 µM) in the assay with Salmonella; 1.56 mg/L (≈ 3.92 µM) in the assay with Shigella boydii; 0.78 mg/L (≈ 1.96 µM) in assay [1]; 0.098 mg/L (≈ 0.246 µM) in the assay with Streptococcus pneumoniae; 1.56 mg/L (≈ 3.92 µM) with Klebsiella pneumoniae; 0.39 mg/L (≈ 0.979 µM) in the assay on Staphylococcus aureus.

Take `O=C(O)c1cn(C2CC2)c2c(F)c(CNc3ccccc3)c(F)cc2c1=O`: the MIC stood at 0.39 mg/L (≈ 1.05 µM) in the assay on Salmonella; 0.39 mg/L (≈ 1.05 µM) against Shigella boydii; 1.56 mg/L (≈ 4.21 µM) in assay [1]; 0.049 mg/L (≈ 0.132 µM) with Streptococcus pneumoniae; 0.78 mg/L (≈ 2.11 µM) against Klebsiella pneumoniae; 0.78 mg/L (≈ 2.11 µM) in the assay with Staphylococcus aureus.

Turning to `CCCCNCc1c(F)cc2c(=O)c(C(=O)O)cn(C3CC3)c2c1F`, the MIC against Salmonella is 0.195 mg/L (≈ 0.557 µM); with Shigella boydii, 0.39 mg/L (≈ 1.11 µM); in assay [1] it was > 6.25 mg/L; in the assay with Streptococcus pneumoniae, 3.13 mg/L (≈ 8.93 µM); in the assay on Klebsiella pneumoniae it was ≤ 0.049 mg/L; in the assay on Staphylococcus aureus it was > 6.25 mg/L.

On to `CC(C)CNCc1c(F)cc2c(=O)c(C(=O)O)cn(C3CC3)c2c1F`, for which the MIC in the assay on Salmonella is ≤ 0.049 mg/L; with Shigella boydii, 0.195 mg/L (≈ 0.557 µM); in assay [1] it was > 6.25 mg/L; against Streptococcus pneumoniae, 1.56 mg/L (≈ 4.45 µM); with Klebsiella pneumoniae, 0.098 mg/L (≈ 0.28 µM); with Staphylococcus aureus, > 6.25 mg/L.

In the case of `O=C(O)c1cn(C2CC2)c2c(F)c(CNC3CCCCC3)c(F)cc2c1=O`, the MIC is 0.195 mg/L (≈ 0.518 µM) in the assay on Salmonella; 0.78 mg/L (≈ 2.07 µM) in the assay with Shigella boydii; 6.25 mg/L (≈ 16.6 µM) in assay [1]; 1.56 mg/L (≈ 4.14 µM) against Streptococcus pneumoniae; 0.195 mg/L (≈ 0.518 µM) with Klebsiella pneumoniae; > 6.25 mg/L in the assay on Staphylococcus aureus.

`O=C(O)c1cn(C2CC2)c2c(F)c(Cn3ccnc3)c(F)cc2c1=O`: the MIC against Salmonella was 0.195 mg/L (≈ 0.565 µM); against Shigella boydii, 0.39 mg/L (≈ 1.13 µM); in assay [1] it was > 6.25 mg/L; against Streptococcus pneumoniae it was 0.78 mg/L (≈ 2.26 µM); with Klebsiella pneumoniae it was 0.195 mg/L (≈ 0.565 µM); with Staphylococcus aureus, 6.25 mg/L (≈ 18.1 µM).

As to `CCN(Cc1c(F)cc2c(=O)c(C(=O)O)cn(C3CC3)c2c1F)c1ccccc1`, the MIC with Salmonella worked out at 3.13 mg/L (≈ 7.86 µM); against Shigella boydii, 3.13 mg/L (≈ 7.86 µM); in assay [1] it was 6.25 mg/L (≈ 15.7 µM); against Streptococcus pneumoniae, 3.13 mg/L (≈ 7.86 µM); in the assay with Klebsiella pneumoniae, 6.25 mg/L (≈ 15.7 µM); in the assay with Staphylococcus aureus, 3.13 mg/L (≈ 7.86 µM).

`CCn1cc(C(=O)O)c(=O)c2cc(F)c(CNC)c(F)c21`: the MIC against Salmonella was 0.39 mg/L (≈ 1.32 µM); against Shigella boydii it was 0.39 mg/L (≈ 1.32 µM); in assay [1], > 6.25 mg/L; in the assay with Streptococcus pneumoniae, 3.13 mg/L (≈ 10.6 µM); in the assay on Klebsiella pneumoniae it was 0.195 mg/L (≈ 0.658 µM); with Staphylococcus aureus, > 6.25 mg/L.

Regarding `C[C@H]1COc2c(N3CCN(C)CC3)c(F)cc3c(=O)c(C(=O)O)cn1c23.C[C@H]1COc2c(N3CCN(C)CC3)c(F)cc3c(=O)c(C(=O)O)cn1c23.O` [LEVOFLOXACIN], the MIC against Salmonella was 0.098 mg/L; in the assay on Shigella boydii, 0.098 mg/L; in assay [1] it was 0.78 mg/L; in the assay with Streptococcus pneumoniae, 0.195 mg/L; in the assay on Klebsiella pneumoniae it was 0.098 mg/L; in the assay with Staphylococcus aureus, 0.78 mg/L.

Take `C[C@H]1COc2c(C3(N)CC3)c(F)cc3c(=O)c(C(=O)O)cn1c23` [PAZUFLOXACIN]: the MIC in the assay on Salmonella is 0.049 mg/L (≈ 0.154 µM); with Shigella boydii, 0.049 mg/L (≈ 0.154 µM); in assay [1] it was 0.39 mg/L (≈ 1.23 µM); in the assay with Streptococcus pneumoniae, 0.049 mg/L (≈ 0.154 µM); against Klebsiella pneumoniae, 0.049 mg/L (≈ 0.154 µM); against Staphylococcus aureus, 0.195 mg/L (≈ 0.613 µM).

For the molecule `CN[C@H](CC(C)C)C(=O)N[C@H]1C(=O)N[C@@H](CC(N)=O)C(=O)N[C@H]2C(=O)N[C@H]3C(=O)N[C@H](C(=O)N[C@H](C(=O)O)c4cc(O)cc(O)c4-c4cc3ccc4O)[C@H](O)c3ccc(c(Cl)c3)Oc3cc2cc(c3O[C@@H]2O[C@H](CO)[C@@H](O)[C@H](O)[C@H]2O[C@H]2C[C@](C)(N)[C@H](O)[C@H](C)O2)Oc2ccc(cc2Cl)[C@H]1O` [VANCOMYCIN], the MIC with Salmonella was > 6.25 mg/L; with Shigella boydii, > 6.25 mg/L; in assay [1] it was 0.78 mg/L (≈ 0.538 µM); in the assay on Streptococcus pneumoniae it was 0.098 mg/L (≈ 0.0676 µM); against Klebsiella pneumoniae, > 6.25 mg/L; against Staphylococcus aureus it was 0.39 mg/L (≈ 0.269 µM).
